Columns and labels:
ctDNA [1] = assay: DNA melting; type: binding, calf; conditions: ctDNA 40 μM, compound 30 μM
Procedure: The DNA binding ability of complex 6 was confirmed by measuring the DNA melting temperature prior to complex binding. Briefly, 40 μM ctDNA was incubated with 30 μM of the complex at 37 °C for 15 min. Afterward, the absorbance of the solution was measured at 260 nm in each °C increment in temperature within the range from 60–97 °C. A Cary UV 300 (Agilent Technologies) was used to measure all absorbances. The experiment was programmed with a 1 °C/min temperature ramp rate from the temperature range 60–97 °C, and the holding time was 1 min. Finally, the absorbance of each experiment was normalized to 0 and 1 and further compared with the melting temperature of native ctDNA.

ctDNA [2] = test system: ctDNA; set-up: method as in PMID 18467423; conditions: for ctDNA; cited from earlier work
PC3 cells [3] = assay: Cytotoxicity, Resazurin assay, normoxic conditions; type: cell-based, human; conditions: for IC50: normoxic conditions (∼15% O2 level), 48 h, Resazurin, read-out: IC50 (μM) ± S.D. PC3
Procedure: (§1) The standard Resazurin assay was performed to determine the cytotoxicity of the synthesized complexes. […] After 24 h of the initial incubation period, the medium was replenished by a fresh metal complex-containing medium (100 μL/well) and incubated for an additional 48 h. Initially, the metal complex was dissolved in DMSO and the target concentration was achieved by further dilution with the medium. […] Each of the reported IC50 values is the mean of three individual experiments with standard deviation, and each concentration was assayed in sextuplicate in each successive experiment.

PC3 cells [4] = assay: Cytotoxicity, Resazurin assay, hypoxic conditions; type: cell-based, human; conditions: for IC50: PC3, hypoxic conditions (2% O2), 48 h, Resazurin, read-out: IC50 (µM) ± S.D. Hypoxia; for Hypoxia resistance factor (ratio of IC50 in hypoxia and normoxia): PC3
Text: Initially, at least three consecutive cell passages were maintained in hypoxic conditions before starting any experiments.

RPE-1 cells = assay: Cytotoxicity, Resazurin assay, normoxic conditions; type: cell-based, human; conditions: normoxic conditions (∼15% O2 level), 48 h, read-out: IC50 (μM) ± S.D. RPE-1
Procedure: as §1

[5] = test system: 3D multicellular PC3 cell spheroids; assay: Cytotoxicity against 3D cell spheroid, AlamarBlue assay; type: cell-based, human; conditions: average diameter 435 μm, 72 h, normoxic, read-out: IC50 against 3D multicellular PC3 cells spheroid
Procedure: 1 × 10^4 PC3 cells were seeded in each well of a Corning 96 Well Ultra-Low Attachment Treated Spheroid Microplate. After 96 h of incubation at 37 °C in normoxic conditions, the average spheroid size observed was 435 μm. Half of the medium was replaced by an equal volume of complex-containing (two times of target concentrations) medium. After 72 h, the cell viability was measured using the AlamarBlue assay. Finally, the IC50 values were determined by using GraphPad Prism 5 software after applying four parameter fitting.

[6] = cited from earlier work

For CC[n+]1c(-c2ccccc2)c2cc(N)ccc2c2ccc(N)cc21 [EB, ethidium bromide, reference compound], the “shift of ctDNA melting temperature (ΔTm)” value (ctDNA [1]) is listed as 4 ± 0.1 °C and the “binding constant of EB (KEB)” value (ctDNA [2]) is listed as 1 × 10^7 M^–1.

With Nc1n[n+]([O-])c2ccccc2[n+]1[O-] [Tirapazamine, tirapazamine, reference compound] the IC50 (PC3 cells [3]; Homo sapiens, PC-3) was roughly 100 µM, the “cell killing in comparison to the control” value (PC3 cells [3]; PC3, normoxia, maximum tested concentration 100 µM) was “around 50%” and the IC50 (PC3 cells [4]; Homo sapiens, PC-3) was 20.4 ± 3 µM. The “Hypoxia resistance factor (ratio of IC50 in hypoxia and normoxia)” value (PC3 cells [4]) was 0.2.

In the case of N.N.[Cl][Pt][Cl] [cisplatin, reference compound], the IC50 (RPE-1 cells) is reported as 36 ± 4 µM, the “selectivity (ratio between IC50 against RPE-1 and IC50 against PC3 cells)” value (PC3 cells [3]; normoxic conditions) is reported as 5 and the IC50 (PC3 cells [3]) is reported as 6.9 ± 0.5 µM. For the same compound, the IC50 [5] was 6.22 µM, the “Hypoxia resistance factor (ratio of IC50 in hypoxia and normoxia)” value (PC3 cells [4]) was greater than 7 and the IC50 (PC3 cells [4]) was greater than 50 µM.

In the case of O.O=c1cccccc1[O][Re].[C-]#[O+].[C-]#[O+].[C-]#[O+] [fac-[Re(CO)3(Trop)(H2O)]], the pKa [6] is given as 8.96 ± 0.02.

From paper PMC10410611, “Rhenium(I) Tricarbonyl Complexes of 1,10-Phenanthroline Derivatives with Unexpectedly High Cytotoxicity” (Inorganic Chemistry, 2023)
